Literature values as cited in patent publication US20250195440A1, “PHARMACEUTICAL FORMULATION COMPRISING GLUCOKINASE ACTIVATOR AND USE THEREOF” (Hua Medicine USA Inc., priority 2023, published 2025).

Tests used:
[1] = tested on: glucose-stimulated GLP-1 secretion; conditions: patients with type II diabetes and obesity; Dorzagliatin alone
[2] = tested on: esterase enzymes in gastrointestinal tract; conditions: with esterase enzymes in gastrointestinal tract

Compound | Impaired glucose-stimulated GLP-1 secretion [1] | Conversion into active Dorzagliatin [2]
CC(C)C[C@@H](C(=O)Nc1ccn(C[C@@H](O)CO)n1)N1CC(Oc2ccccc2Cl)=CC1=O [Dorzagliatin, (S)-2-[4-(2-chloro-phenoxy)-2-oxo-2,5-dihydro-pyrrol-1-yl]-4-methyl-pentanoic acid [1-((R)-2,3-dihydroxy-propyl)-1H-pyrazol-3-yl]-amide] | improved | –
CC(C)C[C@@H](C(=O)Nc1ccn(C[C@@H](O)COC(=O)c2cccnc2)n1)N1CC(Oc2ccccc2Cl)=CC1=O [compound of formula (I)] | – | quickly and completely converted
